In ChEMBL document CHEMBL3817755, “Design, synthesis and biological evaluation of indazolepyrimidine based derivatives as anticancer agents with anti-angiogenic and antiproliferative activities” (Medchemcomm, 2016):
pIC50: −log10 of the molar value.

Experiments:
A549 = assay: Growth inhibition of human A549/ATCC cells after 48 hrs by SRB assay; type: functional; details: A549, 48 h; for CC50: read-out: LC50 (the source's name)
[1] = Growth inhibition of human RPMI8226 cells after 48 hrs by SRB assay; type: functional; details: RPMI-8226, 48 h
[2] = Growth inhibition of human SNB75 cells after 48 hrs by SRB assay; type: functional; details: SNB-75, 48 h
[3] = Growth inhibition of human NCI-ADR-RES cells after 48 hrs by SRB assay; type: functional
[4] = Growth inhibition of human HCC2998 cells after 48 hrs by SRB assay; type: functional; details: HCC 2998, 48 h; for CC50: read-out: LC50 (the source's name)
[5] = Growth inhibition of human PC3 cells after 48 hrs by SRB assay; type: functional; details: PC-3, 48 h
KM12 = assay: Growth inhibition of human KM12 cells after 48 hrs by SRB assay; type: functional; details: KM12, 48 h; for CC50: read-out: LC50 (the source's name)
A498 = assay: Growth inhibition of human A498 cells after 48 hrs by SRB assay; type: functional; details: A498, 48 h; for CC50: read-out: LC50 (the source's name)
[6] = Growth inhibition of human SW620 cells after 48 hrs by SRB assay; type: functional; details: SW-620, 48 h; for CC50: read-out: LC50 (the source's name)
[7] = Growth inhibition of human UACC257 cells after 48 hrs by SRB assay; type: functional; details: UACC-257, 48 h; for CC50: read-out: LC50 (the source's name)
[8] = Growth inhibition of human MOLT4 cells after 48 hrs by SRB assay; type: functional; details: MOLT-4, 48 h
EKVX = assay: Growth inhibition of human EKVX cells after 48 hrs by SRB assay; type: functional; details: for CC50: read-out: LC50 (the source's name)
[9] = biological target: Cyclin-dependent kinase 2 (Homo sapiens) (UniProt P24941); assay: Inhibition of CDK-2 (unknown origin) at 10 uM
[10] = Growth inhibition of human OVCAR8 cells after 48 hrs by SRB assay; type: functional; details: OVCAR-8, 48 h; for CC50: read-out: LC50 (the source's name)
[11] = Growth inhibition of human TK10 cells after 48 hrs by SRB assay; type: functional; details: TK-10, 48 h; for CC50: read-out: LC50 (the source's name)
M14 = assay: Growth inhibition of human M14 cells after 48 hrs by SRB assay; type: functional; details: M14, 48 h; for CC50: read-out: LC50 (the source's name)
NCI-H226 = assay: Growth inhibition of human NCI-H226 cells after 48 hrs by SRB assay; type: functional; details: NCI-H226, 48 h; for CC50: read-out: LC50 (the source's name)
[12] = Growth inhibition of human HOP62 cells after 48 hrs by SRB assay; type: functional; details: HOP-62, 48 h
SR = assay: Growth inhibition of human SR cells after 48 hrs by SRB assay; type: functional; details: for CC50: read-out: LC50 (the source's name)
[13] = Growth inhibition of human HCT15 cells after 48 hrs by SRB assay; type: functional; details: HCT-15, 48 h
[14] = Growth inhibition of human HL-60(TB) cells after 48 hrs by SRB assay; type: functional; details: HL-60, 48 h
T47D = assay: Growth inhibition of human T47D cells after 48 hrs by SRB assay; type: functional
MCF7 = assay: Growth inhibition of human MCF7 cells after 48 hrs by SRB assay; type: functional; details: MCF7, 48 h; for CC50: read-out: LC50 (the source's name)
MDA-MB-468 = assay: Growth inhibition of human MDA-MB-468 cells after 48 hrs by SRB assay; type: functional; details: MDA-MB-468, 48 h; for CC50: read-out: LC50 (the source's name)
HT-29 = assay: Growth inhibition of human HT-29 cells after 48 hrs by SRB assay; type: functional; details: HT-29, 48 h; for CC50: read-out: LC50 (the source's name)
[15] = Growth inhibition of human SF268 cells after 48 hrs by SRB assay; type: functional; details: SF-268, 48 h; for CC50: read-out: LC50 (the source's name)
U-251 = assay: Growth inhibition of human U251 cells after 48 hrs by SRB assay; type: functional; details: U-251, 48 h; for CC50: read-out: LC50 (the source's name)
[16] = Growth inhibition of human OVCAR4 cells after 48 hrs by SRB assay; type: functional; details: OVCAR-4, 48 h; for CC50: read-out: LC50 (the source's name)
SK-MEL-2 = assay: Growth inhibition of human SK-MEL-2 cells after 48 hrs by SRB assay; type: functional; details: SK-MEL-2, 48 h
CCRF-CEM = assay: Growth inhibition of human CCRF-CEM cells after 48 hrs by SRB assay; type: functional
[17] = Growth inhibition of human DU145 cells after 48 hrs by SRB assay; type: functional; details: DU-145, 48 h
[18] = biological target: Vascular endothelial growth factor receptor 2 (Homo sapiens, UniProt P35968); assay: Inhibition of VEGFR-2 (unknown origin) after 40 mins by Kinase-GloPlus luminescence assay
Sequence of Vascular endothelial growth factor receptor 2 (P35968 whole entry): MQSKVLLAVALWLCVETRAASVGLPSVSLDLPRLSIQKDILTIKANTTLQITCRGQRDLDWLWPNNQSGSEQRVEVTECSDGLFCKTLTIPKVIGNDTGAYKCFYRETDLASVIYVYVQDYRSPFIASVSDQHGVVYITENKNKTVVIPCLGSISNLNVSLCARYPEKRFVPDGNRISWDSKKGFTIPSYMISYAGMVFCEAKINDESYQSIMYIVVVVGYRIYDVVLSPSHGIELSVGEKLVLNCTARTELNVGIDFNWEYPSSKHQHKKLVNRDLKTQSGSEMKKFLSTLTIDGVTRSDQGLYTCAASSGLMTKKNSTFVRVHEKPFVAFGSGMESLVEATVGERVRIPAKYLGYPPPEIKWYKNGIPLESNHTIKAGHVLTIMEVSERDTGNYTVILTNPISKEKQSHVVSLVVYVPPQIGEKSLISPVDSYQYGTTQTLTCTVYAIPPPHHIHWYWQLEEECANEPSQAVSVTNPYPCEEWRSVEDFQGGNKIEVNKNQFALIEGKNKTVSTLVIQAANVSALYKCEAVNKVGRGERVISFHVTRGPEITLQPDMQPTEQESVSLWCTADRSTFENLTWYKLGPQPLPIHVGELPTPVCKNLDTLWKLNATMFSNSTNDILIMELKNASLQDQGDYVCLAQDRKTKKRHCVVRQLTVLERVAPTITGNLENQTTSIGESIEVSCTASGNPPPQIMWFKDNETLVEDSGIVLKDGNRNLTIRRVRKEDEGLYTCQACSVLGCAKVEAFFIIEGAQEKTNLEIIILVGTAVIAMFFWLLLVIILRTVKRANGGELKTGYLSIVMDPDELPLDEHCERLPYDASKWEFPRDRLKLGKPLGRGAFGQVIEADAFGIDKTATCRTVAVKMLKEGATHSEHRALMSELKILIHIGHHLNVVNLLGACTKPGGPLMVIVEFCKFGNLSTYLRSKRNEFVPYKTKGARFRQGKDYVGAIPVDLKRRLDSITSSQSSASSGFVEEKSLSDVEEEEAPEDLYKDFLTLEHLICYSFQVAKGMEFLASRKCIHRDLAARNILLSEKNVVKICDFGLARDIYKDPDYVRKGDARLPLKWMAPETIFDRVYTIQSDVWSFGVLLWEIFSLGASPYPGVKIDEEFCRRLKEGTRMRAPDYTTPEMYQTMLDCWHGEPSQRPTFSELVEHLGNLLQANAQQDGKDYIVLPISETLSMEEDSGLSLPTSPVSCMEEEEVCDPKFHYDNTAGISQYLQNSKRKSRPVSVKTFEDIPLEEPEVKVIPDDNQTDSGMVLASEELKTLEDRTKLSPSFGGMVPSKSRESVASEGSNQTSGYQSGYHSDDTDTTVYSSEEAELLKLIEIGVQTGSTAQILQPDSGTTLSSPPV

SK-MEL-28 = assay: Growth inhibition of human SK-MEL-28 cells after 48 hrs by SRB assay; type: functional; details: SK-MEL-28, 48 h, read-out: LC50 (the source's name)
[19] = Growth inhibition of human SNB19 cells after 48 hrs by SRB assay; type: functional; details: SNB-19, 48 h

COc1cccc(Nc2nccc(Nc3ccc4[nH]ncc4c3)n2)c1
GI50 (A549): 1.71 µM
TGI (A549): 3.74 µM
CC50 (A549): 8.22 µM
GI50 [1]: 1.36 µM
LC50 [1]: 50.1 µM
TGI [1]: 4.19 µM
GI50 [2]: 1.39 µM
LC50 [2]: 7.08 µM
TGI [2]: 3.13 µM
GI50 [3]: 1.54 µM
LC50 [3]: 14.8 µM
TGI [3]: 4.36 µM
GI50 [4]: 1.79 µM
TGI [4]: 3.36 µM
CC50 [4]: 6.29 µM
GI50 [5]: 1.34 µM
LC50 [5]: 7.23 µM
TGI [5]: 3.12 µM
GI50 (KM12): 1.64 µM
TGI (KM12): 4.81 µM
CC50 (KM12): 17.4 µM
GI50 (A498): 1.65 µM
TGI (A498): 5.3 µM
CC50 (A498): 30.5 µM
GI50 [6]: 2.41 µM
TGI [6]: 6.13 µM
CC50 [6]: 21 µM
GI50 [7]: 2.04 µM
TGI [7]: 3.73 µM
CC50 [7]: 6.79 µM
GI50 [8]: 0.52 µM
LC50 [8]: 28.4 µM
TGI [8]: 2.83 µM
GI50 (EKVX): 1.64 µM
TGI (EKVX): 4.09 µM
CC50 (EKVX): 10.5 µM
inhibition [9]: 76%
GI50 [10]: 1.67 µM
TGI [10]: 4.39 µM
CC50 [10]: 13.4 µM
GI50 [11]: 1.42 µM
TGI [11]: 2.82 µM
CC50 [11]: 5.6 µM
GI50 (M14): 1.35 µM
TGI (M14): 2.81 µM
CC50 (M14): 5.83 µM
GI50 (NCI-H226): 1.82 µM
TGI (NCI-H226): 4.46 µM
CC50 (NCI-H226): 14.8 µM
GI50 [12]: 1.71 µM
LC50 [12]: 8.36 µM
TGI [12]: 3.78 µM
GI50 (SR): 1.34 µM
TGI (SR): 4.93 µM
CC50 (SR): 20.6 µM
GI50 [13]: 1.21 µM
LC50 [13]: 7.01 µM
TGI [13]: 2.91 µM
GI50 [14]: 1.53 µM
LC50 [14]: 8.29 µM
TGI [14]: 3.56 µM
GI50 (T47D): 1.05 µM
LC50 (concentration killing 50% of cells) (T47D): 9.23 µM
TGI (T47D): 3.12 µM
GI50 (MCF7): 1.26 µM
TGI (MCF7): 3.11 µM
CC50 (MCF7): 7.53 µM
GI50 (MDA-MB-468): 1.25 µM
TGI (MDA-MB-468): 2.77 µM
CC50 (MDA-MB-468): 6.13 µM
GI50 (HT-29): 1.52 µM
TGI (HT-29): 3.45 µM
CC50 (HT-29): 7.83 µM
GI50 [15]: 1.86 µM
TGI [15]: 5.89 µM
CC50 [15]: 22.5 µM
GI50 (U-251): 1.58 µM
TGI (U-251): 3.18 µM
CC50 (U-251): 6.39 µM
GI50 [16]: 1.46 µM
TGI [16]: 4.03 µM
CC50 [16]: 12.5 µM
GI50 (SK-MEL-2): 1.62 µM
LC50 (SK-MEL-2): 6.59 µM
TGI (SK-MEL-2): 3.27 µM
GI50 (CCRF-CEM): 0.9 µM
LC50 (concentration for 50% net cell kill) (CCRF-CEM): 21.7 µM
TGI (CCRF-CEM): 4.56 µM
GI50 [17]: 1.3 µM
LC50 [17]: 6.24 µM
TGI [17]: 2.85 µM
pIC50 [18]: 7.09

COc1ccc(Nc2nccc(Nc3ccc4[nH]ncc4c3)n2)cc1
GI50 (A549): 3.46 µM
TGI (A549): 14.3 µM
CC50 (A549): 78.8 µM
GI50 [1]: 1.99 µM
LC50 [1]: > 100 µM
TGI [1]: 4.67 µM
GI50 [2]: 4.58 µM
LC50 [2]: 51.7 µM
TGI [2]: 20.3 µM
GI50 [3]: 2.18 µM
LC50 [3]: 29.4 µM
TGI [3]: 5.75 µM
GI50 [4]: 2.88 µM
TGI [4]: 8.05 µM
CC50 [4]: 27.6 µM
GI50 [5]: 2.21 µM
LC50 [5]: 50.4 µM
TGI [5]: 7.2 µM
GI50 (KM12): 3.45 µM
TGI (KM12): 24.2 µM
CC50 (KM12): > 100 µM
GI50 (A498): 4.62 µM
TGI (A498): 17.2 µM
CC50 (A498): 41.4 µM
GI50 [6]: 3.31 µM
TGI [6]: > 100 µM
CC50 [6]: > 100 µM
GI50 [7]: 5.41 µM
TGI [7]: 16.9 µM
CC50 [7]: 41.1 µM
GI50 [8]: 1.55 µM
LC50 [8]: > 100 µM
TGI [8]: 4.67 µM
GI50 (EKVX): 5 µM
TGI (EKVX): 17.9 µM
CC50 (EKVX): 42.3 µM
inhibition [9]: 71%
GI50 [10]: 2.24 µM
TGI [10]: 5.39 µM
CC50 [10]: > 100 µM
GI50 [11]: 2.45 µM
TGI [11]: 9.55 µM
CC50 [11]: 31 µM
GI50 (M14): 2.39 µM
TGI (M14): 6.15 µM
CC50 (M14): 21.2 µM
GI50 (NCI-H226): 2.3 µM
TGI (NCI-H226): 5.77 µM
CC50 (NCI-H226): > 100 µM
GI50 [12]: 2.27 µM
LC50 [12]: 19.4 µM
TGI [12]: 5.76 µM
CC50 (SK-MEL-28): > 100 µM
GI50 [19]: 4.3 µM
TGI [19]: 87 µM
CC50 ([19]; read-out: LC50 (the source's name)): > 100 µM
GI50 (SR): 1.75 µM
TGI (SR): 4.67 µM
CC50 (SR): > 100 µM
GI50 [13]: 1.9 µM
LC50 [13]: 9.61 µM
TGI [13]: 4.28 µM
GI50 [14]: 2.05 µM
LC50 [14]: > 100 µM
TGI [14]: 4.67 µM
GI50 (T47D): 1.77 µM
LC50 (concentration killing 50% of cells) (T47D): 97.8 µM
TGI (T47D): 5.24 µM
GI50 (MCF7): 2.05 µM
TGI (MCF7): 5.36 µM
CC50 (MCF7): > 100 µM
GI50 (MDA-MB-468): 1.7 µM
TGI (MDA-MB-468): 4.55 µM
CC50 (MDA-MB-468): 20.6 µM
GI50 (HT-29): 2.36 µM
TGI (HT-29): 8.33 µM
CC50 (HT-29): 39.7 µM
GI50 [15]: 4.2 µM
TGI [15]: 28.6 µM
CC50 [15]: > 100 µM
GI50 (U-251): 3.61 µM
TGI (U-251): 13.6 µM
CC50 (U-251): 36.9 µM
GI50 [16]: 2.99 µM
TGI [16]: 11.8 µM
CC50 [16]: 55.6 µM
GI50 (SK-MEL-2): 2.4 µM
LC50 (SK-MEL-2): 29.8 µM
TGI (SK-MEL-2): 6.39 µM
GI50 (CCRF-CEM): 2.61 µM
LC50 (concentration for 50% net cell kill) (CCRF-CEM): > 100 µM
TGI (CCRF-CEM): 4.67 µM
GI50 [17]: 3.31 µM
LC50 [17]: 41.7 µM
TGI [17]: 12.9 µM
pIC50 [18]: 6.93
